The text below walks through data of patent US11512280B2, “Method for culturing spore-forming bacteria, and method for producing useful substance” (priority 2016, dated 2022).

Format in all cases: cell-based
Assay [1] relates to Bacillus subtilis MBI-600. As to the kind of experiment: Culture of Bacillus subtilis with sporulation-inhibiting and sporulation-accelerating substances, 45 hours (Example 2). The method, then: (§1) Using a 500 ml Erlenmeyer flask (with baffles), each 100 ml of media listed in Table 1 was prepared and then autoclave sterilization was carried out. Note that glucose was separately sterilized and aseptically mixed in order to avoid Maillard reaction.
Test sections were set as described in Table 3. According to the conditions of each test section, the filter-sterilized aqueous solution of each sporulation-inhibiting substance was added aseptically to each medium. According to the conditions of each test section, one loopful of Bacillus subtilis MBI-600 was taken from a colony grown on a nutrient agar medium, inoculated, and then cultured with shaking at 30° C. and 150 rpm.
Sixteen (16) hours after the start of culture, each sporulation-accelerating substance was added according to the conditions of each test section, culture was continued. Forty-five (45) hours after the start of culture, culture was stopped.
(§2) Each of the thus obtained culture liquid was diluted 10-fold with sterile water, and then the bacterial cell concentration (vegetative cells and spores) and the sporulation rate (spore concentration/bacterial cell concentration) were measured using an optical microscope and a bacterial cell counter.

The test system of assay [2] is Bacillus thuringiensis NBRC 101235 strain. Put plainly: Culture of Bacillus thuringiensis with sporulation-inhibiting substance, 40 hours (Example 3). The conditions noted are these: for Bacterial cell concentration / Spore concentration / Sporulation rate: 40 hours culture. Here is the method:
as §1
According to the conditions of each test section, the filter-sterilized aqueous solution of each sporulation-inhibiting substance was added aseptically to each medium. According to the conditions of each test section, one loopful of Bacillus thuringiensis NBRC 101235 strain was taken from a colony grown on a nutrient agar medium, inoculated, and then cultured with shaking at 30° C. and 150 rpm for 40 hours.
as §2

Assay [3] deals with Bacillus subtilis MBI-600. Put plainly: Culture of Bacillus subtilis with sporulation-inhibiting substance, 64 hours (Example 1). The conditions noted are these: for Spore concentration / Sporulation rate / Bacterial cell concentration: 64 hours culture; for bacterial cell concentrations as the concentration of the substance increased: trend over tested concentrations. Here is the method:
Using a 500 ml Erlenmeyer flask (with baffles), each 100 ml of media listed in Table 1 was prepared and then autoclave sterilization was carried out. Glucose was separately sterilized and aseptically mixed in order to avoid Maillard reaction.
According to the conditions of each test section, the filter-sterilized aqueous solution of each sporulation-inhibiting substance was added aseptically to each medium. One loopful of Bacillus subtilis MBI-600 was taken from a colony grown on a nutrient agar medium, inoculated, and then cultured with shaking at 30° C. and 150 rpm for 64 hours.
as §2

Where [4] appears, read: sporulation-accelerating substance 3,000 ppm added at 16 hours, no inhibiting substance, 45 hours culture.
[5] abbreviates: 1.4 ppm plus decoyinine 200 ppm at 16 hours, 45 hours.
[6] abbreviates: 1.4 ppm, no accelerating substance, 45 hours.
[7] abbreviates: 0.3 ppm plus ammonium lactate 3,000 ppm at 16 hours, 45 hours.
[8] abbreviates: 0.3 ppm, no accelerating substance, 45 hours.
Setting [9] is: 0.5 ppm plus ammonium acetate 2,000 ppm at 16 hours, 45 hours.
Setting [10] is: 0.5 ppm plus ammonium acetate 3,000 ppm at 16 hours, 45 hours.
[11] abbreviates: 0.5 ppm plus ammonium acetate 4,000 ppm at 16 hours, 45 hours.
[12] abbreviates: 0.5 ppm plus ammonium lactate 3,000 ppm at 16 hours, 45 hours.
[13] abbreviates: 0.5 ppm, no accelerating substance, 45 hours.
Setting [14] is: 1.0 ppm, no accelerating substance, 45 hours.
The mark [15] stands for this setting: 2.0 ppm, no accelerating substance, 45 hours.

With `CC(=O)O.N` [Ammonium acetate], the “bacterial cell concentration and sporulation rate as the amount of ammonium acetate added increased” value in assay [1] (lincomycin 0.5 ppm with ammonium acetate) is listed as “increased”. The “spore productivity compared with test sections in which no such substance had been added” value in assay [1] (lincomycin 0.5 ppm with ammonium acetate added) was “significantly higher”. In addition, in assay [1] (setting [4]), the Bacterial cell concentration was found to be 4.6e+09 mL⁻¹, the Spore concentration came out at 4.2e+09 mL⁻¹ and the Sporulation rate was 91%.
On to `CC(O)C(=O)O.N` (centres unmarked) [Ammonium lactate], for which, in assay [1] (ammonium lactate added, regardless of the lincomycin concentration), the “sporulation rate compared with test sections in which no accelerating substance had been added” value is “improvement was observed”. The “spore productivity compared with test sections in which no such substance had been added” value in assay [1] (lincomycin 0.3 ppm and 0.5 ppm with ammonium lactate added) is given as “significantly higher”. In assay [1] (setting [4]), this compound displayed a Bacterial cell concentration of 5.2e+09 mL⁻¹, a Spore concentration of 4.8e+09 mL⁻¹ and a Sporulation rate of 91%.
Take `O=C(N[C@H](CO)[C@H](O)c1ccc([N+](=O)[O-])cc1)C(Cl)Cl` [Chloramphenicol]: the “effect of inhibiting sporulation” value in assay [1] (1.4 ppm) is recorded as “observed”. Further, in assay [1] (setting [5]), the Bacterial cell concentration was determined as 5.4e+09 mL⁻¹, the Spore concentration is 4.1e+09 mL⁻¹ and the Sporulation rate stood at 76%. Also, in assay [1] (setting [6]), the Bacterial cell concentration is 5.4e+09 mL⁻¹ and the Sporulation rate is 0%. Besides, the “spore productivity compared with test sections in which no such substance had been added” value in assay [1] (chloramphenicol 1.4 ppm, both test sections (with and without decoyinine)) is reported as “improved”. In assay [2] (2.0 ppm), the “bacterial cell concentration and spore concentration” value is “tended to increase”; the Bacterial cell concentration is 1.6e+09 mL⁻¹; the Spore concentration was 1.3e+09 mL⁻¹; the Sporulation rate is 79%. In addition, in assay [2] (6.0 ppm), the “the growth and the effect of inhibiting sporulation” value is “confirmed”; the Bacterial cell concentration amounted to 8e+06 mL⁻¹; the Sporulation rate is reported as 0%.
Regarding `C=C1O[C@@](CO)(n2cnc3c(N)ncnc32)[C@H](O)[C@@H]1O` [Decoyinine], in assay [1] (decoyinine added during culture in addition to chloramphenicol 1.4 ppm), the Sporulation rate entry is on record as “improvement was observed”.
`CCC[C@@H]1C[C@@H](C(=O)N[C@@H]([C@H]2O[C@H](SC)[C@H](O)[C@@H](O)[C@H]2O)[C@@H](C)O)N(C)C1` [Lincomycin]: the “effect of inhibiting sporulation” value in assay [3] (0.1 ppm) is recorded as “not observed”; in assay [3] (1 ppm) it was “observed”; in assay [1] (0.3 ppm), “not observed”; in assay [1] (0.5 ppm or more) it was “observed”; in assay [2] (12.5 ppm), “confirmed”. The Spore concentration is 4.7e+09 mL⁻¹ in assay [3] (0.1 ppm added); 5.1e+09 mL⁻¹ in assay [1] (setting [7]); 2.7e+09 mL⁻¹ in assay [1] (setting [8]); 4.1e+09 mL⁻¹ in assay [1] (setting [9]); 5.4e+09 mL⁻¹ in assay [1] (setting [10]); 6.1e+09 mL⁻¹ in assay [1] (setting [11]). The Spore concentration in assay [1] (setting [12]) worked out at 5.7e+09 mL⁻¹; in assay [2] (5.0 ppm), 1.2e+09 mL⁻¹; in assay [2] (10.0 ppm), 1e+09 mL⁻¹; in assay [2] (12.5 ppm) it was 1e+08 mL⁻¹. For the same compound, the Sporulation rate in assay [3] (0.1 ppm added) is given as 100%; in assay [3] (1.0 ppm added), 0%; in assay [1] (setting [7]), 91%; in assay [1] (setting [8]), 80%; in assay [1] (setting [9]), 64%; in assay [1] (setting [10]), 71%. Also, the Sporulation rate in assay [1] (setting [11]) worked out at 72%; in assay [1] (setting [12]), 79%; in assay [1] (setting [13]) it was 0%; in assay [1] (setting [14]) it was 0%; in assay [1] (setting [15]) it was 0%; in assay [2] (5.0 ppm) it was 86%. The Sporulation rate in assay [2] (10.0 ppm) was determined as 71%; in assay [2] (12.5 ppm), 13%. In addition, the Bacterial cell concentration in assay [3] (0.1 ppm added, carbon content 9.1 g/L) turned out to be 4.7e+09 mL⁻¹; in assay [3] (1.0 ppm added) it was 7e+09 mL⁻¹; in assay [1] (setting [7]) it was 5.6e+09 mL⁻¹; in assay [1] (setting [8]), 3.3e+09 mL⁻¹; in assay [1] (setting [9]), 6.4e+09 mL⁻¹; in assay [1] (setting [10]), 7.6e+09 mL⁻¹. The Bacterial cell concentration in assay [1] (setting [11]) worked out at 8.4e+09 mL⁻¹; in assay [1] (setting [12]), 7.2e+09 mL⁻¹; in assay [1] (setting [13]) it was 4.4e+09 mL⁻¹; in assay [1] (setting [14]), 5.1e+09 mL⁻¹; in assay [1] (setting [15]) it was 5.9e+09 mL⁻¹; in assay [2] (5.0 ppm) it was 1.4e+09 mL⁻¹. The results for the Bacterial cell concentration in assay [2] (10.0 ppm) and in assay [2] (12.5 ppm) were 1.4e+09 mL⁻¹ and 9e+08 mL⁻¹, respectively. Further, the “bacterial cell concentrations as the concentration of the substance increased” value in assay [3] and in assay [1] (trend over tested concentrations) was “tended to increase” in each case. Also, the “bacterial cell concentration and spore concentration” value in assay [2] (10.0 ppm or lower) is listed as “tended to increase”.
As for `[H]/N=C(/N)N[C@H]1[C@H](O)[C@@H](O)[C@H](O[C@@H]2O[C@@H](C)[C@](O)(C=O)[C@H]2O[C@@H]2O[C@@H](CO)[C@H](O)[C@@H](O)[C@@H]2NC)[C@@H](N/C(N)=N\[H])[C@@H]1O` [Streptomycin], the “effect of inhibiting sporulation” value in assay [3] (12.5 ppm) is on record as “not observed”. Also, in assay [3] (12.5 ppm added), the Bacterial cell concentration was determined as 4.3e+09 mL⁻¹, the Spore concentration was determined as 4.3e+09 mL⁻¹ and the Sporulation rate worked out at 100%. Moreover, in assay [3] (15.0 ppm), the “effect of inhibiting sporulation” value is given as “observed”. In assay [3] (15.0 ppm added), the Bacterial cell concentration was determined as 5.5e+09 mL⁻¹, the Spore concentration stood at 3e+09 mL⁻¹ and the Sporulation rate turned out to be 54%. For the same compound, in assay [3], the “bacterial cell concentrations as the concentration of the substance increased” value is “tended to increase”.
